Assays:
[1] = molecular target: Metabotropic glutamate receptor 5 (Rattus norvegicus, UniProt P31424)
[2] = molecular target: Metabotropic glutamate receptor 1 (Rattus norvegicus, UniProt P23385)
[3] = molecular target: Metabotropic glutamate receptor 4 (Rattus norvegicus, UniProt P31423)
[4] = molecular target: Metabotropic glutamate receptor 2 (Homo sapiens, UniProt Q14416)
Sequence of Metabotropic glutamate receptor 2 (Q14416 whole entry): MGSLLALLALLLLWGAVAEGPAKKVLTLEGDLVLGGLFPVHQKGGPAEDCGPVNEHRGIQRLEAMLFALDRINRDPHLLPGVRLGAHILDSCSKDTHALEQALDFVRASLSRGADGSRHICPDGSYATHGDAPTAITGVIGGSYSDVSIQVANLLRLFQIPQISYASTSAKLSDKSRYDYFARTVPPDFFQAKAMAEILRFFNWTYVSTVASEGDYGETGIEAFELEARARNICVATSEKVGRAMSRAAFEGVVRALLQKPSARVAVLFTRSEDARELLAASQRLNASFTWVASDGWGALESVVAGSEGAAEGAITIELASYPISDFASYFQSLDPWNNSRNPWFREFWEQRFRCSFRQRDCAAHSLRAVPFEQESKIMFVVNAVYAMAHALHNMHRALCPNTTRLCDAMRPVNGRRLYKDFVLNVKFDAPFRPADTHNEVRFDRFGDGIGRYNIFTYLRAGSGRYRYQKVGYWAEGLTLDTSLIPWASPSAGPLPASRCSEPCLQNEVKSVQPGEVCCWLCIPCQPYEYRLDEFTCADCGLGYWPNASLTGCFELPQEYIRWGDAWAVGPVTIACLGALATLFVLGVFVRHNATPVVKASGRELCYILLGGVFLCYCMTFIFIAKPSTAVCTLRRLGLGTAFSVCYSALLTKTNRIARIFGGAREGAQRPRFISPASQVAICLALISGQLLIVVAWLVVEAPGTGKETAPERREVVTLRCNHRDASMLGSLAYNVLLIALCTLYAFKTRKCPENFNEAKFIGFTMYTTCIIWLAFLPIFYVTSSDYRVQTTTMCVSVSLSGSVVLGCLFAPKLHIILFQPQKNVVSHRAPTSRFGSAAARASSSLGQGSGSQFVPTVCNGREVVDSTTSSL

Sequence of Metabotropic glutamate receptor 1 (P23385 whole entry): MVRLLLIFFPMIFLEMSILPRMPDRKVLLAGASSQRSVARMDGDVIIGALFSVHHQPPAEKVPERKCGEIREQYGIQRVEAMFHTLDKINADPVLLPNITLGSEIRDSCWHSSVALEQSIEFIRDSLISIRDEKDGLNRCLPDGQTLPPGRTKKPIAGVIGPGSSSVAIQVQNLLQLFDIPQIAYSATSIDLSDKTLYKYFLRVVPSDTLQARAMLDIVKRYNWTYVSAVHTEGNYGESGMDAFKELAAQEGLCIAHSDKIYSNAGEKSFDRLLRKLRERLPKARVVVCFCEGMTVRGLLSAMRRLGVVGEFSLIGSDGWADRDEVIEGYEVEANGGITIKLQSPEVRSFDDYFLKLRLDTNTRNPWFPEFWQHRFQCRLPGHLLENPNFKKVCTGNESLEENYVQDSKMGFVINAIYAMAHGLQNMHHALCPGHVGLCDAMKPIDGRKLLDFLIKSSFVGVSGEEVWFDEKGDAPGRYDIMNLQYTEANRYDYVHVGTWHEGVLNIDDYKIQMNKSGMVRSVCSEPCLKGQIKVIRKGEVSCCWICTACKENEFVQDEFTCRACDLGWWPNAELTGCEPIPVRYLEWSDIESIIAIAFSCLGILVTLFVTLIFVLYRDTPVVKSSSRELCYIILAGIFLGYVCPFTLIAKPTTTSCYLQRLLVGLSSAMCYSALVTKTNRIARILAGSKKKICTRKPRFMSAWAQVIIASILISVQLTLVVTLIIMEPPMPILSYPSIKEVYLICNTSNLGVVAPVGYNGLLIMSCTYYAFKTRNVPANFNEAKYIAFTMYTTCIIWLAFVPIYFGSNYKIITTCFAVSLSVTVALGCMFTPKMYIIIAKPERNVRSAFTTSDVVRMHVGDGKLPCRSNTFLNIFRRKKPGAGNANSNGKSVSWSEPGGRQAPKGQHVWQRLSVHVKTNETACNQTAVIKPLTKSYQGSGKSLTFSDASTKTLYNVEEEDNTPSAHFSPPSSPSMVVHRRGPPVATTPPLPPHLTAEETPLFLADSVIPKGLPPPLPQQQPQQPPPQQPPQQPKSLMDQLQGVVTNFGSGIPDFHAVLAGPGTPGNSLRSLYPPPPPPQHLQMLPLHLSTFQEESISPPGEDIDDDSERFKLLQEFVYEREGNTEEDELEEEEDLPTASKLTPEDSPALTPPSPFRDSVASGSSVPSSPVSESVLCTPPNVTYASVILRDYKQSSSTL
Sequence of Metabotropic glutamate receptor 4 (P31423 whole entry): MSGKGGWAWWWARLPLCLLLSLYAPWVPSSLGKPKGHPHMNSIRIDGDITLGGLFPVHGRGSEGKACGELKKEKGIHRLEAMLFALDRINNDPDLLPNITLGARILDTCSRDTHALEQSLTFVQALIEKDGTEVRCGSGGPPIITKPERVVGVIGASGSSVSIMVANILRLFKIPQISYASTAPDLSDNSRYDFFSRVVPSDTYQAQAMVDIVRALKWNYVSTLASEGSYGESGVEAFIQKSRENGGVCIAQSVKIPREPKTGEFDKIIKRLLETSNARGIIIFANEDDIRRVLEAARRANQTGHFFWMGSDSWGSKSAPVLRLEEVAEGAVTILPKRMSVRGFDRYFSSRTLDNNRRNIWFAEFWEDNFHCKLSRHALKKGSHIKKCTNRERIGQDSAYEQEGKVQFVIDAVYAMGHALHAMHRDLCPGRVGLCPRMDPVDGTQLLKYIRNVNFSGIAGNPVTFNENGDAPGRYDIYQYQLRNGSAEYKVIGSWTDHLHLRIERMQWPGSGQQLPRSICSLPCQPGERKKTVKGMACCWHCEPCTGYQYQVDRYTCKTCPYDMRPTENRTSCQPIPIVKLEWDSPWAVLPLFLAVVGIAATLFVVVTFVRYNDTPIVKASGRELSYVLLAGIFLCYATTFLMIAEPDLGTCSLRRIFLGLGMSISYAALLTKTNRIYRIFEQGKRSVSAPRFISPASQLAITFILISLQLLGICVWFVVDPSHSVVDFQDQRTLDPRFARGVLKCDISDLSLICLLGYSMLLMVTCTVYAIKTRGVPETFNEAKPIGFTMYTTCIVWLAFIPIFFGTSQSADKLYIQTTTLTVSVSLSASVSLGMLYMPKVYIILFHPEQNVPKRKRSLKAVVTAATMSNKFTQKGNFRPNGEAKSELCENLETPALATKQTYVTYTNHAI
Sequence of Metabotropic glutamate receptor 5 (P31424 whole entry): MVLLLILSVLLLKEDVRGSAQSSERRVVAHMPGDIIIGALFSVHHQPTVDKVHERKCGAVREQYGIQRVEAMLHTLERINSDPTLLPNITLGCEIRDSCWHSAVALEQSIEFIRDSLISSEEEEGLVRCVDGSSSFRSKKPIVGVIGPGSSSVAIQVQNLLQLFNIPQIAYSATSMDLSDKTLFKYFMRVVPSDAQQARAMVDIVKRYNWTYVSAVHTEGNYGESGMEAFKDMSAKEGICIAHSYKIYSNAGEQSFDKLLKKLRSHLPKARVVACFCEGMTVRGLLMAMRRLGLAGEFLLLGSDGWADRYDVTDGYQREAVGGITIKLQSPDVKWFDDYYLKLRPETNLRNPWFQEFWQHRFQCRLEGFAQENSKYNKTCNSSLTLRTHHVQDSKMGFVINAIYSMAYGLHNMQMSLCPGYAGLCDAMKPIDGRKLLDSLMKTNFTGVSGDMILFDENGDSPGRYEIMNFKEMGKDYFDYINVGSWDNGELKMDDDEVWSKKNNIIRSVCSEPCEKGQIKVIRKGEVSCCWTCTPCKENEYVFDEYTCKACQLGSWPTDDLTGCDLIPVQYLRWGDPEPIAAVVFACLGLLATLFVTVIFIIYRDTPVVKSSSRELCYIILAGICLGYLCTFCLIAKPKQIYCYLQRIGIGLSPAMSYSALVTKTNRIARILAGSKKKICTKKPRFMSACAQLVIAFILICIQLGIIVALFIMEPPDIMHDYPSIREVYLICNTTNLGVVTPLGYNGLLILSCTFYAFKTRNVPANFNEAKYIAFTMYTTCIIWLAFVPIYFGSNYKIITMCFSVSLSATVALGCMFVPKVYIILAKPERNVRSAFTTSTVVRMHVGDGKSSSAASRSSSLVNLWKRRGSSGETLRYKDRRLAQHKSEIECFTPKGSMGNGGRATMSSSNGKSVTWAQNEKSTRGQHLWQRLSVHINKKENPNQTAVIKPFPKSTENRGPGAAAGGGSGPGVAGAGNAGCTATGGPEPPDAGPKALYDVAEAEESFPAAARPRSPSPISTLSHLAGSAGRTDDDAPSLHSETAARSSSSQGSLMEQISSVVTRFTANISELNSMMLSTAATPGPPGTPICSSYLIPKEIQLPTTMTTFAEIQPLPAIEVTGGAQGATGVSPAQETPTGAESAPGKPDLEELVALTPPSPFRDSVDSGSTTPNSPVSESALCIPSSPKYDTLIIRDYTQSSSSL

| Ki [1] [µM] | Ki [2] [µM] | Ki [3] [µM] | Ki [4] [µM] | Structure (SMILES) |
| --- | --- | --- | --- | --- |
| > 10 | > 10 | – | – | N[C@H](C(=O)O)c1ccc(C(=O)O)cc1 [4-((S)-Amino-carboxy-methyl)-benzoic acid] |
| > 10 | > 10 | > 10 | > 10 | CCCCc1c(C[C@H](N)C(=O)O)o[nH]c1=O [(R)-Bu-HIBO] |
| > 10 | > 10 | > 10 | > 10 | N[C@H](CCCC(=O)O)C(=O)O [CAS_542-32-5] |
| > 10 | > 10 | > 10 | > 10 | CCCCc1c(O)noc1C[C@@H](N)C(=O)O [CAS_77006-30-5] |
| > 10 | > 10 | > 10 | > 10 | N[C@@H](Cc1cc(=O)[nH]o1)C(=O)O [CAS_194385] |
| > 10 | > 10 | > 10 | > 10 | N[C@H](Cc1cc(=O)[nH]o1)C(=O)O [CAS_194385] |
| – | – | > 10 | – | N[C@@H](CCC(=O)O)C(=O)O [L-Glutamic acid] |

| Structure (SMILES) | Ki [1] [µM] | Ki [2] [µM] | Ki [3] [µM] | Ki [4] [µM] |
| --- | --- | --- | --- | --- |
| Cc1c(C[C@H](N)C(=O)O)o[nH]c1=O [(2S)-2-amino-3-(3-hydroxy-4-methyl-1,2-oxazol-5-yl)propanoic acid] | > 10 | – | > 10 | > 10 |
| Cc1c(C[C@@H](N)C(=O)O)o[nH]c1=O [(S)-4-Methylhomoibotenic acid] | > 10 | > 10 | > 10 | > 10 |
| NC(C(=O)O)c1cc(=O)[nH]o1 (stereo unspecified) [Amino-(3-hydroxy-isoxazol-5-yl)-acetic acid(Ibotenic acid)] | > 10 | > 10 | > 10 | – |
| N[C@@H](Cc1o[nH]c(=O)c1Br)C(=O)O [NSC_2733518] | > 10 | > 10 | > 10 | > 10 |
| N[C@H](Cc1onc(O)c1Br)C(=O)O [NSC_2733518] | > 10 | > 10 | > 10 | > 10 |

Reference: BindingDB's records for doi:10.1016/s0014-2999(98)00246-5 (The Royal Danish School of Pharmacy, 1998)
